Consider 1 compound from article PMC11279551, “Pharmacokinetics and Enterohepatic Circulation of 2-(Quinoline-8-carboxamido)benzoic Acid (2-QBA) in Mice” (Pharmaceutics, 2024).

Values after ≈ are worked out from the molar mass of the structure shown.

The nature of one series: Water solubility. The series is classed as physicochemical. Conditions: n = 4.
Series [1] is described as follows: Urinary and fecal excretion after IV or PO administration (metabolic cage). Type of series: in vivo. Conditions: mice, IV 1.0 mg/kg. On the procedure: We also investigated the excretion profile of 2-QBA after IV and PO administration at doses of 1 mg/kg for IV and 2 mg/kg for PO. After IV or PO administration of 2-QBA, the mice were returned to a metabolic cage to collect the urine and feces samples. The urine and feces samples were collected during the periods of 0–24 h, 24–48 h, 48–72 h, and 72–96 h. The urine ball was washed using equal volumes of methanol and added to the urine samples. The fecal samples were homogenized with 9 volumes of water to yield 10% fecal homogenates. The aliquots (30 μL) of urine and 10% fecal homogenate samples were stored at −80 °C until the analysis of the 2-QBA. For the analysis of the 2-QBA, 120 μL of IS solution was added to the 30 μL aliquot of urine and 10% fecal homogenate samples. The mixture was vigorously vortexed for 5 min and then centrifuged at 13,000× g for 5 min. The supernatant was transferred to autosampler vials. Subsequently, a 3 μL aliquot was injected into the LC-MS/MS system.
WinNonlin 5.1 software (Pharsight Co., Mountain View, CA, USA) was used to calculate the pharmacokinetic parameters. AUClast and AUCinf indicate the areas under the plasma concentration curve from 0 h to the last sample and from 0 h to infinity, respectively; these were estimated using the linear trapezoidal method. T1/2 is the elimination half-life, which is estimated from the elimination coefficient (k) (i.e., 0.693/k), and MRT is the mean residence time. CL is the total clearance, which is calculated by dividing the dose by AUCinf. Vdss is the volume of the distribution at a steady state, calculated from MRTxCL. CLrenal and CLfeces are calculated by dividing the amount excreted in urine and feces by the AUCinf, respectively. CLmetabolism is calculated by subtracting CLrenal and CLfeces from CL. […] BA is calculated by dividing the dose-normalized AUCinf for PO administration (AUCinf/PO dose) by the dose-normalized AUCinf for IV administration (AUCinf/IV dose). All data are expressed as the mean ± standard deviation (SD).

A short description of series [2]: Urinary and fecal excretion of 2-QBA and 2-QBA-Glu with vehicle or AC treatment (β-glucuronidase treatment). The settings on record: mice; for urinary excretion rate: PO 2 mg/kg. The series is classed as in vivo. Here is the method:
In total, […] were administered 2-QBA (1 mg/kg/3 mL) via the tail vein. Two hours after the 2-QBA dosing, AC (0.8 g/kg/5 mL in distilled water) or a vehicle (5 mL/kg distilled water) was administrated via oral gavage. Each group included ten mice who were randomly divided into two groups for sparse sampling. Blood collection was performed at 0.083, 0.5, 2, and 8 h from 5 mice and at 0.25, 1, 4, and 24 h from another 5 mice, as described previously. Four mice treated with either AC (0.8 g/kg) or the vehicle 2 h after the 2-QBA IV dosing (1 mg/kg) were returned to a metabolic cage to collect the urine and feces samples. The urine and feces samples were collected for 72 h.
Next, 2-QBA was administered PO (2 mg/kg/5 mL) with or without AC (0.8 g/kg in 3 mL of DW), which was administered via oral gavage 2 h after the 2-QBA dosing. Each group included eight mice who were randomly divided into two groups for sparse sampling. Blood collection was performed at 0.25, 0.75, 2, and 8 h from 4 mice and at 0.5, 1, 4, and 24 h from another 4 mice, as described previously. Four mice treated with either AC (0.8 g/kg) or vehicle 2 h after the 2-QBA PO dosing (2 mg/kg) were returned to a metabolic cage to collect the urine and feces samples. The urine and feces samples were collected for 72 h.
Aliquots of plasma samples (30 μL) were added to 120 μL of IS solution. The mixture was vigorously vortexed for 5 min and then centrifuged at 13,000× g for 5 min. The supernatant was transferred to autosampler vials. Subsequently, a 3 μL aliquot was injected into the LC-MS/MS system. Aliquots (30 μL) of urine and 10% feces homogenate samples were added to 60 μL of 150 mM sodium acetate buffer (pH 5.0) in the presence or absence of β-glucuronidase (900 unit) at 37 °C for 2 h. […]
Then, we quantified the 2-QBA and 2-QBA-Glu from the urine and fecal samples obtained from the mice after IV or PO administration of 2-QBA. In addition, the amount of 2-QBA-Glu was calculated by subtracting the control 2-QBA from the total 2-QBA with β-glucuronidase treatment. […]

Series [3] is described as follows: Intestinal permeability in Ussing chamber. Type of series: in vitro ADME, mice. Conditions: upper and lower ileum. On the procedure: The small intestines were isolated from fasted mice under isoflurane anesthesia (1–3% with oxygen gas flow) and dissected into three parts, the jejunum, upper ileum, and lower ileum. […] The intestinal permeability of 2-QBA was assessed by adding 0.5 mL of HBSS containing 20 μM of 2-QBA on the donor side and 0.5 mL of fresh HBSS on the receiver side. Then, a 100 μL aliquot was withdrawn from the receiver side every 30 min for 2 h and an equal volume of pre-warmed fresh HBSS was added to replenish the lost volume. To analyze the 2-QBA, 100 μL aliquots were mixed with 4 volumes of IS solution (1 ng/mL berberine in acetonitrile). The mixture was vigorously vortexed for 5 min and then centrifuged at 13,000× g for 5 min. The supernatant was transferred to autosampler vials. Subsequently, a 3 μL aliquot was injected into the LC-MS/MS system.

A short description of the next series: Plasma protein binding. The series is classed as in vitro ADME. The settings on record: n = 6, read-out: plasma protein binding rate (converted).

As to `O=C(O)c1ccccc1NC(=O)c1cccc2cccnc12` [2-QBA, 2-(quinoline-8-carboxamido)benzoic acid], in “Water solubility”, the solubility (commonly the concentration that dissolves in the medium under given conditions) was 35.6 ± 2.71 µg/mL (≈ 122 µM). In series [1] (male, ICR, mouse, urine), this compound registered a CL renal of 5.47 ± 2.22 mL/min/kg. In addition, the “Amount excreted in feces for 96 h” value in series [1] (parent form) is 9.30 ± 6.17 % of dose. Besides, the “Amount excreted in urine for 96 h” value in series [1] (parent form) is listed as 13.8 ± 4.24 % of dose. For the same compound, the dose excreted in series [2] (ICR, mouse, faeces, 1 mg/kg, IV injection of 2-QBA, read-out: fecal recovery rate) is less than 5%. The urinary excretion rate is given as 17.5 % of the administered PO dose in series [2] (with AC (0.8 g/kg)) and 27.7 % of the administered PO dose in series [2] (without AC). Besides, the “absorptive permeability class compared with marker compounds” value in series [3] (jejunum) was “moderate to high”. In addition, in series [3] (mouse, 20 μM donor, HBSS pH 7.4, range over jejunum, read-out: absorptive permeability), the Papp A→B at 2 h, 20 μM lay within 4.46 to 10 ×10⁻⁶ cm/s. In addition, the fraction unbound in “Plasma protein binding” is 0.128.
